{"source": "paper PMC13588620", "about": "“Linear antibody epitope prediction using AlphaFold2” (eLife, 2026)", "test_system": "mBG17 binding to SARS-CoV-2 nucleocapsid protein", "test": "Peptide competition ELISA with overlapping nucleocapsid peptides", "set-up": "species or system mouse", "conditions": "40 μg (approximately 30 nMol) peptide incubated with 40 μl mBG17 for 1 h at room temperature, absorbance at 450 nm, n=3, percentage of binding from no-peptide control"}
{"sequence": "DDFSKQLQQS [a.a. 401–410]", "values": [{"measurement": "competition of mBG17 binding to the SARS-CoV-2 nucleocapsid protein in the ELISA", "result": "almost complete competition"}]}
{"sequence": "PAADLDDFSK [a.a. 296–405, synthetic 10 a.a. peptide of SARS-CoV-2 nucleocapsid protein overlapping a.a; 401–410 at the N-terminus]", "values": [{"measurement": "competition of mBG17 binding to the SARS-CoV-2 nucleocapsid protein in the ELISA", "result": "neither was able to compete"}]}
{"sequence": "QLQQSMSSAD [a.a. 406–415, synthetic 10 a.a. peptide of SARS-CoV-2 nucleocapsid protein]", "values": [{"measurement": "competition of mBG17 binding to the SARS-CoV-2 nucleocapsid protein in the ELISA", "result": "neither was able to compete"}]}
